Counter-ions that a name gives are not always drawn.
Row | Compound | melting point [°C]
1 | COCC(C)NCc1ccccc1-c1cc2nc(-c3ccco3)nn2c(N)n1 (racemic) (as salt: hydrochloride) [Compound 9, (±)-5-Amino-2-(2-furyl)-7-[{2-[(2-methoxy-1-methylethyl)aminomethyl]phenyl}(1,2,4]triazolo[1,5-c]pyrimidinemonohydrochloride] | 178.9 to 179.7
2 | COc1ccc(CN(Cc2cc3nc(-c4ccco4)nn3c(N)n2)C(C)=O)cc1OC [Compound 34, 7-[(N-acetyl-3,4-dimethoxybenzylamino)methyl]-5-amino-2-(2-furyl)[1,2,4]triazolo[1,5-c]pyrimidine] | 136 to 136.5
3 | CN(Cc1ccccc1)C(=O)c1cc2nc(-c3ccco3)nn2c(N)n1 (as salt: HCl) [Compound 78, 5-Amino-2-(2-furyl)[1,2,4]triazolo[1,5-c]pyrimidine-7-carboxylic acid (N-benzyl-N-methyl)amide] | 188.5 to 189.1
4 | CN(C)CCN(Cc1ccccc1)C(=O)c1cc2nc(-c3ccco3)nn2c(N)n1 | 215.2 to 215.4
5 | CC(=O)NCCNC(=O)c1cc2nc(-c3ccco3)nn2c(N)n1 | 233.8 to 234
6 | COc1cc(CNCc2ccc(-c3cc4nc(-c5ccco5)nn4c(N)n3)cc2)cc(OC)c1 (as salt: hydrochloride) [Compound 17, 5-Amino-7-[4-(3,5-dimethoxybenzylaminomethyl)phenyl]-2-(2-furyl)[1,2,4]triazolo[1,5-c]pyrimidine monohydrochloride] | 224.6 to 225.2
7 | Nc1nc(CNCCCN2CCCC2=O)cc2nc(-c3ccco3)nn12 (as salt: hydrochloride) [Compound 47, 5-Amino-2-(2-furyl)-7-[3-(2-oxopyrrolidin-1-yl)propylamino-methyl][1,2,4]triazolo[1,5-c]pyrimidine dihydrochloride] | 229.1 to 229.8
8 | COCCN(CCOC)C(=O)c1cc2nc(-c3ccco3)nn2c(N)n1 [Compound 88, 5-Amino-2-(2-furyl)[1,2,4]triazolo[1,5-c]pyrimidine-7-carboxylic acid [N,N-bis(2-methoxyethyl)]amide] | 190.5 to 190.8

Continued, values first:

Row | melting point [°C] | Compound
9 | 279.2 to 279.9 | Nc1nc(-c2ccncc2)cc2nc(-c3ccco3)nn12 [Compound 54, 5-Amino-2-(2-furyl)-7-(4-pyridyl)[1,2,4]triazolo[1,5-c]-pyrimidine]
10 | 227.8 to 228.5 | Cc1noc(C)c1-c1cc2nc(-c3ccco3)nn2c(N)n1 [Compound 57, 5-Amino-7-(3,5-dimethylisoxazol-4-yl)-2-(2-furyl)[1,2,4]-triazolo[1,5-c]pyrimidine]
11 | 247.2 to 247.4 | Nc1nc(COc2ccccc2)cc2nc(-c3ccco3)nn12
12 | 239.2 to 239.6 | Nc1nc(Cn2ccccc2=O)cc2nc(-c3ccco3)nn12 [Compound 37, 5-Amino-2-(2-furyl)-7-(2-oxopyridin-1-ylmethyl)[1,2,4]-triazolo[1,5-c]pyrimidine]
13 | 212.8 to 213.2 | Nc1nc(-c2cccc(C=O)c2)cc2nc(-c3ccco3)nn12 [Compound 18, 5-Amino-7-(3-formylphenyl)-2-(2-furyl)[1,2,4]triazolo[1,5-c]pyrimidine]
14 | 279.2 to 279.6 | Nc1nc(CNc2ccccc2)cc2nc(-c3ccco3)nn12 [Compound 36, 5-Amino-7-anilinomethyl-2-(2-furyl)[1,2,4]triazolo[1,5-c]-pyrimidine]
15 | 239.6 to 239.9 | Nc1nc(-c2ccc(CO)cc2)cc2nc(-c3ccco3)nn12 [Compound 61, 5-Amino-2-(2-furyl)-7-(4-hydroxymethylphenyl)[1,2,4]-triazolo[1,5-c]pyrimidine]
16 | 229 to 229.2 | Nc1nc(COc2ccccn2)cc2nc(-c3ccco3)nn12 [Compound 32, 5-Amino-2-(2-furyl)-7-(pyridin-2-yloxymethyl)[1,2,4]-triazolo[1,5-c]pyrimidine]
17 | 261.5 to 261.9 | Nc1nc(COc2cccc(Br)c2)cc2nc(-c3ccco3)nn12
